In ChEMBL document CHEMBL4825679, “Water-Soluble Heliomycin Derivatives to Target i-Motif DNA” (J Nat Prod, 2021):
Activity calls are given as the source filed them. The rule behind the calls is not given here.

Columns and labels:
HMEC-1 = assay: Cytotoxicity against human HMEC-1 cells assessed as growth inhibition after 72 hrs by MTT assay; format: cell-based; conditions: HMEC-1, 72 h
L1210 = assay: cells; conditions: Mus musculus, L1210, 72 h
Description: Antiproliferative activity against mouse L1210 cells assessed as growth inhibition after 72 hrs by MTT assay

HeLa = assay: cells; conditions: Homo sapiens, 72 h
Description: Antiproliferative activity against human HeLa cells assessed as growth inhibition after 72 hrs by MTT assay

CCRF-CEM = assay: cells; conditions: Homo sapiens, 72 h
Description: Antiproliferative activity against human CEM cells assessed as growth inhibition after 72 hrs by MTT assay

Homo sapiens [1] = species: Homo sapiens; assay: Binding affinity to DAP DNA (unknown origin) assessed as stabilization of DNA by measuring change in melting temperature at 1 uM by FRET analysis
Homo sapiens [2] = species: Homo sapiens; assay: Binding affinity to human TeloC DNA assessed as stabilization of DNA by measuring change in melting temperature at 1 uM by FRET analysis
Homo sapiens [3] = species: Homo sapiens; assay: Binding affinity to HIF1A DNA (unknown origin) assessed as stabilization of DNA by measuring change in melting temperature at 1 uM by FRET analysis
DNA = assay: Binding affinity to double strand DNA (unknown origin) assessed as stabilization of DNA by measuring change in melting temperature at 1 uM by FRET analysis; format: nucleic-acid assay; conditions: Homo sapiens
[4] = Binding affinity to NASG DNA (unknown origin) assessed as stabilization of DNA by measuring change in melting temperature at 1 uM by FRET analysis
Homo sapiens [5] = species: Homo sapiens; assay: Binding affinity to cMYC DNA (unknown origin) assessed as stabilization of DNA by measuring change in melting temperature at 1 uM by FRET analysis
Quadruplex DNA = assay: Binding affinity to human G-quadruplex TeloG DNA assessed as stabilization of DNA by measuring change in melting temperature at 1 uM by FRET analysis; format: nucleic-acid assay
Homo sapiens [6] = species: Homo sapiens; assay: Binding affinity to ILPR DNA (unknown origin) assessed as stabilization of DNA by measuring change in melting temperature at 1 uM by FRET analysis

| SMILES | IC50 (HMEC-1) [nM] | IC50 (L1210) [nM] | IC50 (HeLa) [nM] | IC50 (CCRF-CEM) [nM] | Activity (Homo sapiens [1]) | Activity (Homo sapiens [2]) | ΔTm (Homo sapiens [3]) [°C] | ΔTm (DNA) [°C] | ΔTm [4] [°C] | ΔTm (Homo sapiens [5]) [°C] | ΔTm (Quadruplex DNA) [°C] | ΔTm (Homo sapiens [6]) [°C] |
| --- | --- | --- | --- | --- | --- | --- | --- | --- | --- | --- | --- | --- |
| COc1cccc2c1C(=O)c1c(O)c3c(c(O)c1C2=O)C[C@@](O)(C(=O)CO)C[C@@H]3O[C@H]1C[C@H](N)[C@H](O)[C@H](C)O1 [DOXORUBICIN] | 100 |  |  |  |  |  |  |  |  |  |  |  |
| Cc1cc(NCCN)c2c3c4c(cc(O)c13)C(C)(C)C(=O)c1c(O)cc(O)c(c1-4)C2=O | 1200 | 200 | 1600 | 2100 |  |  |  |  |  |  |  |  |
| COc1cc2c3c4c(c(NCCN)cc(C)c14)C(=O)c1c(O)cc(O)c(c1-3)C(=O)C2(C)C | 700 | 800 | 800 | 800 | inactive | inactive | 10 | 6 | 4 | 25 | 5 | 17 |
